[PEt] = P-ethoxy (ethyl phosphotriester) internucleoside linkage
Tests used:
[1] = Plasma pharmacokinetics of Grb2 antisense oligo in patients; conditions: human, in vivo
Experimental: Pharmacokinetic (PK) analysis was performed on plasma samples collected from refractory/relapsed patients diagnosed with AML receiving BP1001 (60 mg/m^2)+LDAC or receiving BP1001 (90 mg/m^2)+LDAC.
Blood samples for measurement of Grb2 antisense oligo concentrations were collected from patients in cohorts 7 and 8, at predose, 1, 2, 4, 6, 8, 24, 72 h post start-of-infusion (SOI). Urine samples for measurement of BP1001 concentrations were also collected from patients in cohorts 7 and 8, at start of dose-4 h, 4-8 h postdose, and 8-24 h postdose. PK blood samples were processed to plasma and analyzed using a validated method (Charles River Laboratories, Montreal, Canada) with a lower limit of quantitation (LLOQ; 0.5 ng/mL). Urine samples were analyzed using a validated method (Charles River Laboratories, Montreal, Canada) with a LLOQ of 1.00 ng/mL.
PK parameters were estimated using Phoenix pharmacokinetic software (Certara). A non-compartmental approach consistent with the IV infusion route of administration was used for parameter estimation, using an estimated infusion time of 2.5 h. All parameters were generated from Grb2 antisense oligo individual concentrations in plasma from Day 1 of Cycle 1, whenever practical. […] Parameters were estimated using nominal sampling times relative to the start of infusion. The area under the concentration vs. time curve (AUC) was calculated using the linear trapezoidal method with linear interpolation. The slope of the terminal elimination phase was determined using log linear regression on the unweighted concentration data.

[2] = test system: five strains of Salmonella; assay: Ames mutagenicity study; format: cell-based; conditions: presence and absence of S-9
Experimental: BP1001 was tested in an Ames mutagenicity study. Sodium chloride (0.9%) was added to vials of BP1001 containing 5 mg of Grb2 oligonucleotide. The sample was tested against five strains of Salmonella in various concentrations in the presence and absence of the S-9 enzyme activation system. The sample was not mutagenic to the strains tested.

Grb2 = assay: Selective inhibition of Grb2 protein production (SDS-PAGE, blot) in BV173 and ALL-1 cells; format: cell-based, human; conditions: 4 to 8 μM, three days, Crk1 as control protein
Experimental: FIGS. 5A-B. Selective inhibition of the production of Grb2 proteins. […] After three days of culture, protein-containing layers were prepared and subjected to SDS-PAGE and transferred to nitrocellulose membranes. Blots were cut into sections and incubated with antibodies specific for Grb2 (target) or Crk1 (control) protein. BP1001 is a neutral liposome incorporated with the nuclease-resistant, hydrophobic P-ethoxy antisense oligos targeted to Grb2 mRNA.

Substance: BP1001: liposome-incorporated P-ethoxy antisense oligodeoxynucleotide (5′-ATATTTGGCGATGGCTTC-3′, SEQ ID NO: 1) specific to grb2 mRNA, in neutral DOPC liposomes (DNA, all [PEt], methylation of C not given here; incorporated in neutral DOPC liposomes)
- Tmax ([1]; 60 mg/m2): 1 h
- t1/2 ([1]; 60 mg/m2): 29.6 ± 8.1 h
- Tmax ([1]; 90 mg/m2): 1 h
- t1/2 ([1]; 90 mg/m2): 11.8 ± 5.4 h
- mutagenicity [2]: not mutagenic
- Grb2 protein production (Grb2): selectively inhibit Grb2 protein production

Reference: US20200032271A1, “COMBINATION THERAPY WITH LIPOSOMAL ANTISENSE OLIGONUCLEOTIDES” (Bio-Path Holdings, Inc., priority 2016, published 2020)
